Assay results: paper PMC3878827, “Synthesis and biological characterisation of ^18F-SIG343 and ^18F-SIG353, novel and high selectivity σ2 radiotracers, for tumour imaging properties” (EJNMMI Research, 2013)
Several values for one entry are separate records, joined by “and”; a condition that tells them apart may be missing. Equal entries are not always repeated.

Tests used:
[1] = tested on: A375 (human amelanotic melanoma) cells; experiment: Cell uptake studies in A375 cells; type: cell-based
Experimental: (§1) A375 (human amelanotic melanoma) cells were purchased from American Type Culture Collection (Manassas, VA, USA) and cultured in RPMI-1640 medium (Sigma-Aldrich, St. Louis, MO, USA) supplemented with 10% foetal calf serum (Invitrogen, CA, USA) and 2 mM L-glutamine (Sigma). Cells were maintained in 175 cm^2 flasks in at 37°C in 5% CO2:95% atmosphere humidified incubator and grown to sub-confluent monolayers before being detached using trypsin for use in animal models.
In 24-well culture plates, 2.5 × 10^5 cells were seeded in complete medium and left to attach overnight. The following day, the number of cells per well was counted in triplicate. Before incubation with the radiotracer, the growth media was removed and the cells were washed once with warm PBS to remove all traces of growth media. ^18F-SIG343 or ^18F-SIG353 was formulated in warm PBS containing 0.1% Tween-80. Freshly prepared radiotracer (0.37 MBq in 500 μL) was added and the cells were incubated at 37°C for 2, 15, 30, 60 and 120 min. Uptake was terminated by removing the tracer solution and washing cells with ice-cold PBS. Subsequently, the cells were lysed with 500 μL of 0.2 N NaOH. The radioactivity in the cell lysate was measured with a Wallac 1480 γ-counter (PerkinElmer, MA, USA). The results were expressed as percentage of applied dose per 1 × 10^5 cells. All activities were corrected for decay. Optimal uptake time will be selected for inhibition cell uptake studies.

[2] = tested on: A375 (human amelanotic melanoma) cells; experiment: Cell uptake inhibition studies in A375 cells with competing σ ligands; type: cell-based; conditions: 15 min
Experimental: as §1
Cells were prepared as described for uptake studies. Prior to the addition of the radiotracer, 400 μL of blocking drug (6.25 μmol/L in PBS) or PBS (for controls) was added to the wells. Freshly prepared radiotracer (0.37 MBq in 100 μL) was added, and the cells were incubated at 37°C for 15 min as the optimal time previously determined by the cell uptake studies. Uptake was terminated as described for uptake studies. The percentage of uptake in the treatment groups relative to the control group was determined.

[3] = Metabolite studies (radio-TLC and radio-HPLC) in A375 tumour-bearing mice; type: in vivo; conditions: i.v., mean ± SD, n = 3
Experimental: The amount of intact ^18F-SIG343 and ^18F-SIG353 in the plasma, urine, tumour and brain cortex was quantified by thin layer chromatography (TLC) and radio-HPLC analysis. Mice were injected with 20 MBq of the radiotracer in 100 μL of saline. Mice were sacrificed 15, 60 and 120 min post injection of radiotracer. Whole organ samples of brain cortex and tumour samples (10 to 60 mg, minced) were added to unlabelled SIG343 or SIG353 (5 μL; 1 mg/mL), KF (5 μL; 1 mg/mL), MeCN (0.3 mL) and water (0.2 mL). Samples were exposed to an ultrasonic probe (Ultrasonic processor, Misonix Inc., Farmingdale, NY, USA) for 2 min before being centrifuged (5,000 rpm, 5 min). Plasma (50 μL) or urine (10 μL) samples were added to unlabelled SIG343 or SIG353, KF and 0.5 mL MeCN. Plasma samples were centrifuged (Heraeus Biofuge PrimoR, Thermo Fisher Scientific, Hudson, NH, USA; 5,000 rpm, 5 min), and the supernatant was removed and the radioactivity of the precipitated pellets was measured using a gamma counter to determine the extraction efficiency. If necessary, multiple extractions were performed to ensure maximum recovery of the radioactivity. An appropriate amount of the supernatant, based on the activity level (cpm), was collected (approximately 100 μL), diluted with water (up to 1.5 mL) for HPLC analysis or evaporated to dryness under vacuum for TLC analysis.
The TLC sample was reconstituted in methanol (25 to 50 μL) and mixed before being applied to the concentrating zone of the silica TLC plate. In a separate lane, the corresponding ^18F-labelled and ^19F-standard was also spotted. The TLC solvent systems of EtOAc/MeOH (70:30) were utilised for ^18F-SIG343 (rf 0.50) and ^18F-SIG353 (rf 0.55). The UV of the standard was identified using a UV lamp, while the movement and integration of the radioactive spots were visualised and measured using a phosphorimager (BAS 2500 Phosphorimager, Fujifilm, Tokyo, Japan) with Fujifilm Multigage 3.0 software. The intact radiotracer was identified as the radioactive spot containing the identical rf value to the corresponding ^19F-standard seen under the UV lamp. The integration of the active spot in relation to all the activity in the TLC lane gave the percentage of intact radiotracer.
Radio-HPLC analysis was performed following the method of Hilton et al.. A pre-column (Waters Oasis HLB, 25 μm, 20 × 3.9 mm) and a reversed phase HPLC column (Phenomenex Bondclone C18, 10 μm, 250 × 4.6 mm or Phenomenex Synergi Max-RP 80A C18, 4 μm, 250 × 4.6 mm) in series, with a switching valve between columns was utilised. The pre-column was washed with 1% acetonitrile in water for 3 min at 1.5 mL/min and then the solvent direction was switched to include the HPLC column. Both columns in series were then eluted over 10 min. The radioactivity peak corresponding to the authentic radiotracer was compared to the total activity registered in the radiochromatogram to give the fraction of unchanged radiotracer in the sample.

[4] = PET/CT imaging studies in A375 tumour-bearing mice; type: in vivo; conditions: 120-min PET scan
Experimental: The mouse was anaesthetised via inhalant isoflurane (Forthane, Abbott Laboratories, IL, USA) (5% induction, 1% to 3% maintenance in 200 mL/min oxygen). Respiration and heart rates of the animal were monitored (BioVet; m2m Imaging Corp, Cleveland, OH, USA) during the entire scanning period. The core body temperature of the animals was maintained via a temperature-controlled heating pad. The mouse was injected intravenously with 4.6 to 16.7 MBq of ^18F-SIG343 or ^18F-SIG353, with a constant mass of the unlabelled compounds of 0.06 nmol in 100 μL of saline (n = 3). A 120-min PET scan was performed on an Inveon multimodality positron emission tomography-computed tomography (PET/CT) system (Siemens Medical Solutions, Knoxville, TN, USA) followed by a 10-min CT scan on each subject for anatomical information. Image acquisition commenced simultaneously with radiotracer injection. The data was histogrammed into 25 consecutive frames, and activity volumes were reconstructed with an iterative reconstruction (OSEM/MAP) including attenuation and scatter correction, achieving a reconstructed spatial resolution of 1.5 mm. […] Regional activity data (Bq/cc) were extracted from nine selected volumes/regions of interest (VOIs/ROIs) where σ receptor distribution was reported and the tail and expressed as percentage of injected dose per cubic centimetres (%ID/cc).

[5] = declined after 60 min (up to 120 min)

Row | Compound | Cell uptake, percentage of applied dose per 1 × 10^5 cells ([1]; after 2 min, 37°C) | Cell uptake, percentage of applied dose per 1 × 10^5 cells ([1]; between 15 and 60 min (peak/plateau)) | Cell uptake, percentage of applied dose per 1 × 10^5 cells [1, 5] | Change of cell uptake of radiotracer versus control ([2]; competitor (+)-pentazocine 5 μM) | Change of cell uptake of radiotracer versus control ([2]; competitor haloperidol 5 μM) | Change of cell uptake of radiotracer versus control ([2]; competitor unlabelled SIG343 5 μM) | Unchanged form, Cortex ([3]; 15 min post injection) | Unchanged form, Plasma ([3]; 15 min post injection) | Unchanged form, Tumour ([3]; 15 min post injection) | Unchanged form, Urine ([3]; 15 min post injection) | Unchanged form, Cortex ([3]; 60 min post injection) | Unchanged form, Plasma ([3]; 60 min post injection) | Unchanged form, Tumour ([3]; 60 min post injection) | Unchanged form, Urine ([3]; 60 min post injection) | Unchanged form, Plasma ([3]; 120 min post injection) | Unchanged form, Urine ([3]; 120 min post injection) | Tumour uptake by PET imaging [4] | Change of cell uptake of radiotracer versus control ([2]; any of the competing σ ligands ((+)-pentazocine, haloperidol, unlabelled SIG353) 5 μM) | Unchanged form, Tumour ([3]; 120 min post injection)
1 | COc1cc2c(cc1OC)CN(CCCCN1C(=O)c3ccc([18F])cc3C1=O)CC2 [^18F-SIG343] | approximately 2% | 2% | 1.6% | no significant blocking effect | -72% | -69% | 87 ± 3.2% | 49 ± 7.5% | 79 ± 4.6% | 13% and 13 ± 1.2% | 83 ± 0.8% | 23 ± 3.8% | 85 ± 3.1% | 15 ± 4.3% | 16 ± 2.8% | 11 ± 5.4% | 0.9 %ID/cc |  | 
2 | COc1cc2c(cc1OC)CN(CCCCCN1C(=O)c3ccc([18F])cc3C1=O)CC2 [^18F-SIG353] | approximately 2% |  | 2.3% |  |  |  | 85% | 60 ± 3.0% | 81 ± 4.5% | 5% and 5 ± 1.3% | 87% | 27 ± 5.1% | 85 ± 2.4% | 4 ± 0.4% | 17 ± 2.9% | 5 ± 1.2% | 1.3 %ID/cc | not significantly reduced | 65% and 65 ± 8.9%
